These results are taken from patent US20080051400A1, “Methods for treating or preventing anemia or thrombocytopenia using a triheterocyclic compound” (Gemin X Biotechnologies Inc., priority 2006, published 2008).

The test system of assay [1] is patients having chronic lymphocytic leukemia (CLL). Briefly: Multi-center, double-blind, dose-ranging study in patients having chronic lymphocytic leukemia (CLL). It is filed as in vivo, human. The protocol:
In a multi-center, double-blind, dose-ranging study, two groups of patients having chronic lymphocytic leukemia (CLL) received intravenous doses of either 3.5-14 mg/m^2 of the mesylate salt of Compound 1 administered as a 1-hour infusion, or a 20-40 mg/m2 dose via a 3-hour infusion. These infusions were administered over a period of several weeks to several months.

In assay [2] the test system is patients having myelodysplastic syndromes (MDS). Briefly: Multi-center, open label, dose escalation study in patients having myelodysplastic syndromes (MDS). It counts as in vivo, human. The protocol: In a multi-center, open label, dose escalation study, a group of eight patients having myelodysplastic syndromes (MDS) received intravenous doses of 7-40 mg/m^2 of the mesylate salt of Compound 1 administered as a 24-hour infusion every two weeks. These infusions were administered over a period of several weeks to several months, the first cycle of infusion was administered in a clinical unit but the subsequent four cycles were administered in the ambulatory setting using portable infusion pumps.

On to `COC1=CC(c2cc3ccccc3[nH]2)=N/C1=C\c1[nH]c(C)cc1C` [Compound 1], for which, in assay [1] (CLL patients with initial hemoglobin counts of less than 11 g/dL, mesylate salt i.v. 3.5-40 mg/m^2), the “anemic patients who showed significant hemoglobin elevation” value is listed as “three out of eleven anemic patients”. Also, the “patients having thrombocytopenia who showed significant increases in platelet count” value in assay [1] (CLL patients with initial platelet counts less than 150×10^9/L, mesylate salt i.v. 3.5-14 mg/m^2 as 1-hour infusion or 20-40 mg/m2 as 3-hour infusion, over several weeks to several months) is “Four patients out of fourteen patients”. The “patients becoming transfusion independent (hemoglobin responders)” value in assay [1] (among the three anemic CLL patients with hemoglobin elevation, FIG. 1) was “two of the patients”; in assay [2] (among the three MDS patients with hemoglobin improvement, FIG. 2A), “two of the patients”. The “increase in platelet count in responding patients” value in assay [1] (four responding thrombocytopenic CLL patients, mesylate salt i.v. 3.5-40 mg/m^2) is “over 50%”. Further, in assay [2] (MDS patients, mesylate salt i.v. 7-40 mg/m^2 as 24-hour infusion every two weeks, FIG. 2A), the “patients who showed hematological improvement in hemoglobin levels” value is reported as “Three out of eight patients”. Moreover, the “patients who showed platelet count elevation” value in assay [2] (MDS patients, mesylate salt i.v. 7-40 mg/m^2 as 24-hour infusion every two weeks, FIG. 2B, patient 3 was not thrombocytopenic at start) is given as “these three patients showed platelet count elevation”. The “patients becoming transfusion independent (platelet responders)” value in assay [2] (among the three MDS patients with platelet count elevation, FIG. 2B) is recorded as “one of the patients”.
